Where a name gives a salt, the structure may show the parent alone.
COc1cc(Cl)cc(C)c1Nc1nc2cccc(-c3c(OC)cccc3OC)c2n1C (as salt: trifluoroacetic acid salt) [Example 71, N-(4-chloro-2-methoxy-6-methylphenyl)-7-(2,6-dimethoxyphenyl)-1-methyl-1H-benzimidazol-2-amine Trifluoroacetic acid salt]
melting point: 288 to 289 °C

CCCC(O)(CCC)c1cccc2nc(Nc3c(C)cc(C)cc3C)n(CCO)c12 [Example 73, 4-[1-(2-Hydroxyethyl)-2-(mesitylamino)-1H-benzimidazol-7-yl]heptan-4-ol]
melting point: 267 to 270 °C

CCC(CC)c1ccc(Cl)c2nc(Nc3c(Cl)cc(OC(F)(F)F)cc3Cl)n(C)c12 [Example 79, 4-Chloro-N-[2,6-dichloro-4-(trifluoromethoxy)phenyl]-7-(1-ethylpropyl)-1-methyl-1H-benzimidazol-2-amine]
melting point: 147 to 149 °C

CCC(CC)c1ccc(Cl)c2nc(Nc3ccc(Cl)cc3Cl)n(C)c12 [Example 80, 4-Chloro-N-(2,4-dichlorophenyl)-7-(1-ethylpropyl)-1-methyl-1H-benzimidazol-2-amine]
melting point: 130 to 132 °C

CCC(CC)c1ccc(Cl)c2nc(Nc3ccc(Cl)cc3OC(F)(F)F)n(C)c12 [Example 81, 4-Chloro-N-[4-chloro-2-(trifluoromethoxy)phenyl]-7-(1-ethylpropyl)-1-methyl-1H-benzimidazol-2-amine]
melting point: 126 to 128 °C

CCC(CC)c1ccc(Cl)c2nc(Nc3c(C)cc(Br)cc3C)n(C)c12 [Example 82, N-(4-Bromo-2,6-dimethylphenyl)-4-chloro-7-(1-ethylpropyl)-1-methyl-1H-benzimidazol-2-amine]
melting point: 247 to 249 °C

CCC(CC)c1ccc(Cl)c2nc(Nc3c(C)cc(Cl)cc3C)n(C)c12 [Example 83, 4-Chloro-N-(4-chloro-2,6-dimethylphenyl)-7-(1-ethylpropyl)-1-methyl-1H-benzimidazol-2-amine]
melting point: 247 to 249 °C

CCC(CC)c1ccc(Cl)c2nc(Nc3ccc(Br)cc3Cl)n(C)c12 [Example 85, N-(4-Bromo-2-chlorophenyl)-4-chloro-7-(1-ethylpropyl)-1-methyl-1H-benzimidazol-2-amine]
melting point: 127 to 129 °C

CCC(CC)c1ccc(Cl)c2nc(Nc3ccc(C)cc3Br)n(C)c12 [Example 86, N-(2-Bromo-4-methylphenyl)-4-chloro-7-(1-ethylpropyl)-1-methyl-1H-benzimidazol-2-amine]
melting point: 174 to 176 °C

CCC(CC)c1ccc(Cl)c2nc(Nc3ccc(OC(F)(F)F)cc3Cl)n(C)c12 [Example 87, 4-Chloro-N-[2-chloro-4-(trifluoromethoxy)phenyl]-7-(1-ethylpropyl)-1-methyl-1H-benzimidazol-2-amine]
melting point: 122 to 123 °C

CCC(CC)c1ccc(Cl)c2nc(Nc3cnc(N(C)C)cc3C)n(C)c12 [Example 88, N^5-[4-Chloro-7-(1-ethylpropyl)-1-methyl-1H-benzimidazol-2-yl]-N^2,N^2,4-trimethylpyridine-2,5-diamine]
melting point: 224 to 226 °C

CCCC(CCC)c1ccc(Cl)c2nc(Nc3c(C)cc(Br)cc3OC)n(C)c12 [Example 89, N-(4-Bromo-2-methoxy-6-methylphenyl)-4-chloro-1-methyl-7-(1-propylbutyl)-1H-benzimidazol-2-amine]
melting point: 210 to 211 °C

CCCC(CCC)c1ccc(Cl)c2nc(Nc3ccc(Cl)cc3Cl)n(C)c12 [Example 91, 4-Chloro-N-(2,4-dichlorophenyl)-1-methyl-7-(1-propylbutyl)-1H-benzimidazol-2-amine]
melting point: 146 to 148 °C

CCCC(CCC)c1ccc(Cl)c2nc(Nc3ccc(Cl)cc3Br)n(C)c12 [Example 92, N-(2-Bromo-4-chlorophenyl)-4-chloro-1-methyl-7-(1-propylbutyl)-1H-benzimidazol-2-amine]
melting point: 145 to 147 °C

CCCC(CCC)c1ccc(Cl)c2nc(Nc3ccc(Br)cc3Cl)n(C)c12 [Example 93, N-(4-Bromo-2-chlorophenyl)-4-chloro-1-methyl-7-(1-propylbutyl)-1H-benzimidazol-2-amine]
melting point: 145 to 147 °C

CCCC(CCC)c1ccc(Cl)c2nc(Nc3ccc(Cl)cc3OC(F)(F)F)n(C)c12 [Example 94, 4-Chloro-N-[4-chloro-2-(trifluoromethoxy)phenyl]-1-methyl-7-(1-propylbutyl)-1H-benzimidazol-2-amine]
melting point: 130 to 132 °C

CCC(CC)c1ccc(Cl)c2nc(Nc3ccc(C(F)(F)F)cc3Cl)n(C)c12 [Example 95, 4-Chloro-N-[2-chloro-4-(trifluoromethyl)phenyl]-7-(1-ethylpropyl)-1-methyl-1H-benzimidazol-2-amine]
melting point: 128 to 129 °C

CCC(CC)c1ccc(Br)c2nc(Nc3c(C)cc(Cl)cc3OC)n(C)c12 [Example 96, 4-Bromo-N-(4-chloro-2-methoxy-6-methylphenyl)-7-(1-ethylpropyl)-1-methyl-1H-benzimidazol-2-amine]
melting point: 198 to 199 °C

CCC(CC)c1ccc(Cl)c2nc(Oc3ccc(Cl)cc3Cl)n(C)c12 [Example 98, 4-Chloro-2-(2,4-dichlorophenoxy)-7-(1-ethylpropyl)-1-methyl-1H-benzimidazole]
melting point: 87 to 89 °C

CCC(CC)c1ccc(Cl)c2nc(Oc3c(C)cc(C)cc3C)n(C)c12 [Example 99, 4-Chloro-7-(1-ethylpropyl)-2-(mesityloxy)-1-methyl-1H-benzimidazole]
melting point: 137 to 139 °C

CCC(CC)c1ccc(Cl)c2nc(Nc3c(C)cc(Cl)cc3OC)n(CC(=O)OC(C)C)c12 [Example 102, Isopropyl[4-chloro-2-[(4-chloro-2-methoxy-6-methylphenyl)amino]-7-(1-ethylpropyl)-1H-benzimidazol-1-yl]acetate]
melting point: 205 to 207 °C

COc1cc(Cl)cc(C)c1Nc1nc2c(Cl)ccc(C(=O)C(C)(C)C)c2n1C [Example 105, 1-{4-Chloro-2-[(4-chloro-2-methoxy-6-methylphenyl)amino]-1-methyl-1H-benzimidazol-7-yl}-2,2-dimethylpropan-1-one]
melting point: 249 to 250 °C

COc1cc(Cl)cc(C)c1Nc1nc2c(Cl)ccc(C(O)(C(C)(C)C)C(C)(C)C)c2n1C [Example 106, 3-{4-Chloro-2-[(4-chloro-2-methoxy-6-methylphenyl)amino]-1-methyl-1H-benzimidazol-7-yl}-2,2,4,4-tetramethylpentan-3-ol]
melting point: 246 to 248 °C

COc1cc(Cl)cc(C)c1Nc1nc2c(Cl)ccc(C(O)(C(C)C)C(C)C)c2n1C [Example 107, 3-{4-Chloro-2-[(4-chloro-2-methoxy-6-methylphenyl)amino]-1-methyl-1H-benzimidazol-7-yl}-2,4-dimethylpentan-3-ol]
melting point: 218 to 219 °C

COc1cc(Cl)cc(C)c1Nc1nc2c(Cl)ccc(C(=C(C)C)C(C)C)c2n1C [Example 108, 4-Chloro-N-(4-chloro-2-methoxy-6-methylphenyl)-7-(1-isopropyl-2-methylprop-1-en-1-yl)-1-methyl-1H-benzimidazol-2-amine]
melting point: 166 to 168 °C

C/C=C(/CC)c1ccc(Cl)c2nc(Nc3c(C)cc(Cl)cc3OC)n(C)c12 [Example 109, 4-Chloro-N-(4-chloro-2-methoxy-6-methylphenyl)-7-[(1Z)-1-ethylprop-1-en-1-yl]-1-methyl-1H-benzimidazol-2-amine]
melting point: 166 to 168 °C

CCCC(CCC)c1ccc(Cl)c2nc(Nc3cc(C(F)(F)F)ccc3OC)n(C)c12 [Example 112, 4-Chloro-N-[2-methoxy-5-(trifluoromethyl)phenyl]-1-methyl-7-(1-propylbutyl)-1H-benzimidazol-2-amine]
melting point: 178 to 180 °C

CCCC(CCC)c1ccc(Cl)c2nc(Nc3cc(C(F)(F)F)c(Cl)cc3Cl)n(C)c12 [Example 113, 4-Chloro-N-[2,4-dichloro-5-(trifluoromethyl)phenyl]-1-methyl-7-(1-propylbutyl)-1H-benzimidazol-2-amine]
melting point: 206 to 208 °C

CCCC(CCC)c1ccc(Cl)c2nc(Nc3c(C)cc(Cl)cc3C)n(C)c12 [Example 114, 4-Chloro-N-(4-chloro-2,6-dimethylphenyl)-1-methyl-7-(1-propylbutyl)-1H-benzimidazol-2-amine]
melting point: 230 to 232 °C

CCCC(CCC)c1ccc(Cl)c2nc(Nc3c(C)cc(Br)cc3C)n(C)c12 [Example 115, N-(4-Bromo-2,6-dimethylphenyl)-4-chloro-1-methyl-7-(1-propylbutyl)-1H-benzimidazol-2-amine]
melting point: 234 to 236 °C

CCCC(CCC)c1ccc(Cl)c2nc(Nc3c[nH]c(=O)cc3C)n(C)c12 [Example 116, 5-{[4-Chloro-1-methyl-7-(1-propylbutyl)-1H-benzimidazol-2-yl]amino}-4-methylpyridin-2(1H)-one]
melting point: 237 to 239 °C

CCCC(CCC)c1ccc(Cl)c2nc(Nc3cccc4c3CCCC4)n(C)c12 [Example 117, 4-Chloro-1-methyl-7-(1-propylbutyl)-N-(5,6,7,8-tetrahydronaphthalen-1-yl)-1H-benzimidazol-2-amine]
melting point: 236 to 238 °C

CCC(CC)c1cc(Br)cc2nc(Nc3c(C)cc(Cl)cc3OC)n(C)c12 [Example 121, 5-Bromo-N-(4-chloro-2-methoxy-6-methylphenyl)-7-(1-ethylpropyl)-1-methyl-1H-benzimidazol-2-amine]
melting point: 276 to 278 °C

CCCC(CCC)c1ccc(Cl)c2nc(Nc3cc(C(F)(F)F)c(O)cc3Cl)n(C)c12 [Example 122, 5-Chloro-4-{[4-chloro-1-methyl-7-(1-propylbutyl)-1H-benzimidazol-2-yl]amino}-2-(trifluoromethyl)phenol]
melting point: 197 to 199 °C

CCCC(CCC)c1ccc(Cl)c2nc(Nc3cc(C(F)(F)F)c(OC)cc3OC)n(C)c12 [Example 123, 4-Chloro-N-[2,4-dimethoxy-5-(trifluoromethyl)phenyl]-1-methyl-7-(1-propylbutyl)-1H-benzimidazol-2-amine]
melting point: 196 to 198 °C

CCCC(CCC)c1ccc(Cl)c2nc(Oc3c(C)cc(C)cc3C)n(C)c12 [Example 124, 4-Chloro-2-(mesityloxy)-1-methyl-7-(1-propylbutyl)-1H-benzimidazole]
melting point: 165 to 167 °C
